This passage reports IC50 results from patent US12643892B2, “Pyridazinone compounds for the treatment of neuromuscular diseases” (Edgewise Therapeutics, Inc., priority 2020, dated 2026).

A value given as a limit tells only on which side of the number the result lay.

The assay has as its target Skeletal Myofibril ATPase (Rabbit Psoas myofibrils). In words: Skeletal Myofibril ATPase Assay. The format is biochemical. As to conditions: PK/LDH-coupled NADH absorbance at 340 nm. On the procedure: Overview: Myosin ATPase activity was assessed by using a coupled reaction system, in which ADP generated by the myosin ATPase function was coupled to the disappearance of NADH through the pyruvate kinase/lactate dehydrogenase (PK-LDH) system. Myosin ATPase activity produces ADP, which was used as a substrate for PK to produce pyruvate and regenerate ATP. The pyruvate was then used as a substrate by LDH to oxidize NADH to NAD+. The rate of the reaction was monitored through the time-dependent disappearance of NADH using absorbance at 340 nm. Inhibition of ATPase activity by the assayed compounds was indicated by a reduced rate of NADH loss, relative to vehicle-treated controls, over the experimental time window. To assess the selectivity of the assayed compounds for skeletal myofibrils, the compounds were counter-screened in cardiac myofibrils.
Materials: The following stock solutions and reagents were used in the Skeletal Myofibril ATPase Assay:
Stock Solutions of pCa buffer. Combine PIPES, CaCl2, and EGTA solutions with 70 mL of water. Adjust pH to 7.0 and bring final volume to 100 mL.
Buffer A & Buffer B. Buffers were stored on ice until use.
Skeletal Myofibril ATPase Assay Procedure: BSA, ATP, NADH, PEP, and DTT solutions were thawed at room temperature, then transferred to ice. Pellet-frozen myofibrils (approximately twice the required volume) were transferred into a sufficiently large tube and capped. Myofibrils were thawed by rolling in a water bath for approximately 15 min at room temperature and cooled on ice. Buffers A and B were prepared by adjusting volumes as necessary for required number of wells and stored on ice. 0.5 μL of the compounds to be assayed were added into wells of a 384-well plate. Buffers A and B were mixed by inversion immediately prior to use, then 25 μL of each was dispensed using a Multidrop dispenser (Buffer A first, then Buffer B). The absorbance within the wells was measured at 340 nm, using a kinetic protocol in which the wells are read every 1.5-2 min for 1 h. The reaction rate was qualitatively assessed by subtracting the minimum absorbance value from the maximum value for each well, using either the SoftMax Pro plate reader software or a spreadsheet program such as Excel. Using GraphPad Prism 8.0, the data was normalized, with 100% activity defined as the absorbance change in the 1% DMSO vehicle wells and 0% assigned to no change in absorbance over the course of the experiment. The normalized data were fit to a variable-slope four-parameter logistic model, constraining the bottom to be 0 or greater. Compounds of Table 1 to 3 were tested and results of the assay appear in Table 4 herein. A=IC50 is less than or equal to 10 μM; B=IC50 is greater than 10 μM and less than 100 μM; C=IC50 is greater than 100 μM.
A word on the IC50: it is the point on the concentration scale where inhibition reaches its midpoint. Low readings indicate greater potency in that assay, high ones weaker potency in that assay. In turn, `COc1ncccc1Cn1cc(-c2nc(-c3cccc(C)c3)no2)ccc1=O` [Compound 121, 1-((2-methoxypyridin-3-yl)methyl)-5-(3-(m-tolyl)-1,2,4-oxadiazol-5-yl)pyridin-2(1H)-one] yielded an IC50 of over 120 µM.
In turn, `Cc1cccc(-c2noc(-c3ccc(=O)n(Cc4ccc(C)nc4)c3)n2)c1` [Compound 96, 1-((6-methylpyridin-3-yl)methyl)-5-(3-(m-tolyl)-1,2,4-oxadiazol-5-yl)pyridin-2(1H)-one] had a half-maximal inhibitory concentration (IC50) of at most 10 µM.
On to `CCNC(=O)Cn1nc(-c2nc(-c3cccc(Cl)c3)co2)ccc1=O` [Compound 30, 2-(3-(4-(3-chlorophenyl)oxazol-2-yl)-6-oxopyridazin-1(6H)-yl)-N-ethylacetamide], for which the IC50 is at most 10 µM.
The compound `O=c1ccc(-c2nc(-c3ccc(F)c(F)c3)no2)cn1Cc1cccnc1` [Compound 97, 5-(3-(3,4-difluorophenyl)-1,2,4-oxadiazol-5-yl)-1-(pyridin-3-ylmethyl)pyridin-2(1H)-one] gave a 50% inhibitory concentration (IC50) of at most 10 µM.
`O=C(Cn1nc(-c2cccs2)ccc1=O)Nc1ccc2c(c1)OCO2` [Compound 47, N-(benzo[d][1,3]dioxol-5-yl)-2-(6-oxo-3-(thiophen-2-yl)pyridazin-1(6H)-yl)acetamide] displayed an IC50 of over 100 µM.
Then `O=c1ccc(-c2nc(-c3ccccc3Cl)no2)cn1Cc1noc(C2CC2)n1` [Compound 113, 5-(3-(2-chlorophenyl)-1,2,4-oxadiazol-5-yl)-1-((5-cyclopropyl-1,2,4-oxadiazol-3-yl)methyl)pyridin-2(lH)-one], with over 120 µM; and `CCNC(=O)Cn1nc(-c2nnc(-c3cncc(C(F)(F)F)c3)s2)ccc1=O` [Compound 19, N-ethyl-2-(6-oxo-3-(5-(5-(trifluoromethyl)pyridin-3-yl)-1,3,4-thiadiazol-2-yl)pyridazin-1(6H)-yl)acetamide], with at most 10 µM.
Take `COc1ccccc1NC(=O)Cn1nc(-c2cccs2)ccc1=O` [Compound 40, N-(2-methoxypheny1)-2-(6-oxo-3-(thiophen-2-yl)pyridazin-1(6H)-yl)acetamide]: the IC50 lay in the range of 10 to 100 µM.
As for `Cn1ccc2c(NC(=O)Cn3nc(-c4cccs4)ccc3=O)cccc21` [Compound 83, N-(1-methyl-1H-indol-4-yl)-2-(6-oxo-3-(thiophen-2-yl)pyridazin-1(6H)-yl)acetamide], the concentration for half-maximal inhibition (IC50) was at most 10 µM.
Consider `O=c1ccc(-c2cccs2)nn1Cc1cccc(F)c1` [Compound 57, 2-(3-fluorobenzyl)-6-(thiophen-2-yl)pyridazin-3(2H)-one], for which the half-maximal inhibitory concentration (IC50) lay in the range of 10 to 100 µM.
Consider `Cc1noc(-c2ccc(=O)n(Cc3ccccc3F)n2)n1` [Compound 70, 2-(2-fluorobenzyl)-6-(3-methyl-1,2,4-oxadiazol-5-yl)pyridazin-3(2H)-one], for which the IC50 is 10 to 100 µM.
`Cc1cccc(-c2noc(-c3ccc(=O)n(Cc4ncc(C)s4)c3)n2)c1` [Compound 92, 1-((5-methylthiazol-2-yl)methyl)-5-(3-(m-tolyl)-1,2,4-oxadiazol-5-yl)pyridin-2(1H)-one] came in with an IC50 of at most 10 µM.
As for `O=c1ccc(-c2nc(-c3cccc(Cl)c3)no2)nn1Cc1cncc(F)c1` [Compound 64, 6-(3-(3-chlorophenyl)-1,2,4-oxadiazol-5-yl)-2-((5-fluoropyridin-3-yl)methyl)pyridazin-3(2H)-one], the IC50 was at most 10 µM.
Compound `O=C(Cn1nc(-c2cccs2)ccc1=O)Nc1ccccc1` [Compound 43, 2-(6-oxo-3-(thiophen-2-yl)pyridazin-1(6H)-yl)-N-phenylacetamide] registered an IC50 of over 100 µM.
On to `CCNC(=O)Cn1nc(-c2nc(-c3cccc(OC(F)(F)F)c3)no2)ccc1=O` [Compound 6, N-ethyl-2-(6-oxo-3-(3-(3-(trifluoromethoxy)phenyl)-1,2,4-oxadiazol-5-yl)pyridazm-1(6H)-yl)acetamide], for which the IC50 is at most 10 µM.
Then `Cc1ccc(-c2ccc(=O)n(CC(=O)N[C@](C)(C#N)C(C)C)n2)s1` [Compound 36, (S)-N-(2-cyano-3-methylbutan-2-yl)-2-(3-(5-methylthiophen-2-yl)-6-oxopyridazin-1(6H)-yl)acetamide], with 10 to 100 µM; and `CCCNC(=O)Cn1nc(-c2nc(-c3ccc(Cl)cc3)no2)ccc1=O` [Compound 51, 2-(3-(3-(4-chlorophenyl)-1,2,4-oxadiazol-5-yl)-6-oxopyridazin-1(6H)-yl)-N-propylacetamide], with at most 10 µM; and `CCNC(=O)Cn1nc(-c2nc(-c3cncc(Cl)c3)no2)ccc1=O` [Compound 12, 2-(3-(3-(5-chloropyridin-3-yl)-1,2,4-oxadiazol-5-yl)-6-oxopyridazin-1(6H)-yl)-N-ethylacetamide], with at most 10 µM.
Then `O=c1ccc(-c2nc(-c3cncc(Cl)c3)no2)nn1Cc1ccccc1` [Compound 66, 2-benzyl-6-(3-(5-chloropyridin-3-yl)-1,2,4-oxadiazol-5-yl)pyridazin-3(2H)-one], with at most 10 µM; and `O=c1ccc(-c2cccs2)nn1Cc1cccc(C(F)(F)F)c1` [Compound 59, 6-(thiophen-2-yl)-2-(3-(trifluoromethyl)benzyl)pyridazin-3(2H)-one], with over 100 µM; and `Cc1cnc(-c2ccc(=O)n(CC(=O)NCc3ccccc3Cl)n2)s1` [Compound 26, N-(2-chlorobenzyl)-2-(3-(5-methylthiazol-2-yl)-6-oxopyridazin-1(6H)-yl)acetamide], with at most 10 µM.
Consider `Cc1cccc(-c2noc(-c3ccc(=O)n(Cc4ccc(C(F)(F)F)nc4)c3)n2)c1` [Compound 114, 5-(3-(m-tolyl)-1,2,4-oxadiazol-5-yl)-l-((6-(trifluoromethyl)pyridin-3-yl)methyl)pyridin-2(1H)-one], for which the 50% inhibitory concentration (IC50) was over 120 µM.
In the case of `O=c1ccc(-c2nc(-c3cccnc3)no2)nn1Cc1ccccc1F` [Compound 68, 2-(2-fluorobenzyl)-6-(3-(pyridin-3-yl)-1,2,4-oxadiazol-5-yl)pyridazin-3(2H)-one], the half-inhibitory concentration (IC50) is 10 to 100 µM.
Turning to `O=c1ccc(-c2nc(-c3cccc(Cl)c3)no2)cn1Cc1cncnc1` [Compound 85, 5-(3-(3-chlorophenyl)-l,2,4-oxadiazol-5-yl)-1-(pyrimidin-5-ylmethyl)pyridin-2(1H)-one], the IC50 is at most 10 µM.
The compound `O=c1ccc(-c2cccs2)nn1Cc1ccccc1F` [Compound 58, 2-(2-fluorobenzyl)-6-(thiophen-2-yl)pyridazin-3(2H)-one] gave an IC50 of over 100 µM.
Compound `O=c1ccc(-c2nc(-c3cncc(Cl)c3)no2)nn1Cc1cncc(F)c1` [Compound 65, 6-(3-(5-chloropyridin-3-yl)-1,2,4-oxadiazol-5-yl)-2-((5-fluoropyridin-3-yl)methyl)pyridazin-3(2H)-one] yielded a half-maximal inhibitory concentration (IC50) of at most 10 µM.
Consider `CCNC(=O)Cn1nc(-c2ncc(-c3cccc(Cl)c3)s2)ccc1=O` [Compound 25, 2-(3-(5-(3-chlorophenyl)thiazol-2-yl)-6-oxopyridazin-1(6H)-yl)-N-ethylacetamide], for which the IC50 is at most 10 µM.
Then `Cc1cccc(-c2noc(-c3ccc(=O)n(Cc4cncc(C#N)c4)c3)n2)c1` [Compound 98, 5-((2-oxo-5-(3-(m-tolyl)-1,2,4-oxadiazol-5-yl)pyridin-1(2H)-yl)methyl)nicotinoni trile], with at most 10 µM.
`O=c1ccc(-c2nc(-c3ccncc3)no2)cn1Cc1ccccc1C(F)(F)F` [Compound 120, 5-(3-(pyridin-4-yl)-1,2,4-oxadiazol-5-yl)-1-(2-(trifluoromethyl)benzyl)pyridin-2(1H)-one] gave a half-maximal inhibitory concentration (IC50) of over 120 µM.
With `Cc1cccc(-c2noc(-c3ccc(=O)n(Cc4ccc(C#N)nc4)c3)n2)c1` [Compound 103, 5-((2-oxo-5-(3-(m-tolyl)-1,2,4-oxadiazol-5-yl)pyridin-1(2H)-yl)methyl)picolinonitrile], the concentration for half-maximal inhibition (IC50) was at most 10 µM.
The compound `CCNC(=O)Cn1nc(-c2nc(C3CC3)no2)ccc1=O` [Compound 15, 2-(3-(3-cyclopropyl-1,2,4-oxadiazol-5-yl)-6-oxopyridazin-1(6H)-yl)-N-ethylacetamide] came in with an IC50 of 10 to 100 µM.
Compound `O=c1ccc(-c2nc(-c3cccc(Cl)c3)no2)cn1Cc1cccnc1` [Compound 91, 5-(3-(3-chlorophenyl)-1,2,4-oxadiazol-5-yl)-1-(pyridin-3-ylmethyl)pyndin-2(1H)-one] came in with a concentration for half-maximal inhibition (IC50) of at most 10 µM.
Turning to `Cc1ccc(-c2ccc(=O)n(CCOc3cccc(C#N)c3)n2)s1` [Compound 61, 3-(2-(3-(5-methylthiophen-2-yl)-6-oxopyridazin-1(6H)-yl)ethoxy)benzonitrile], the 50% inhibitory concentration (IC50) was over 100 µM.
